# Source: patent US10821115B2, “Compounds that inhibit Mcl-1 protein” (priority 2017, dated 2020)
# Read-outs that look alike come from different tables or passages of the source.
# What was measured:
# [1] = test system: human multiple myeloma cell line, OPM-2; test: Cell viability assay (OPM-2 10 FBS), CellTiter-Glo; type: cell-based
# Summary of the method: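 Serially diluted test compounds are incubated 16 h with cells (3000/well) in RPMI 1640 supplemented with 10% FBS. Viability is then measured by luminescence and IC50 calculated by 4-parameter logistic fit.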
# [2] = molecular target: recombinant human Mcl-1 (residues 171-327) / Bim interaction (Homo sapiens (Human), UniProt Q07820); test: biochemical; type: binding; details: read-out: Mcl-1 HTRF IC50
# [3] = 0.1 nM Mcl-1(171-327), 0.05 nM biotin-Bim (51-76)
# [4] = read-out: OPM-2 10% FBS IC50 IP, OPM-2 cells, 10% FBS, 16 h incubation
# [5] = Homo sapiens, OPM-2, 16 h, read-out: OPM-2 10% FBS IC50 IP, OPM-2 cells, 10% FBS, 16 h, CellTiter-Glo
# [6] = TR-FRET, Mcl-1(171-327) / biotin-Bim (51-76)
# Chain of recombinant human Mcl-1 (residues 171-327) / Bim interaction (Q07820 171-327): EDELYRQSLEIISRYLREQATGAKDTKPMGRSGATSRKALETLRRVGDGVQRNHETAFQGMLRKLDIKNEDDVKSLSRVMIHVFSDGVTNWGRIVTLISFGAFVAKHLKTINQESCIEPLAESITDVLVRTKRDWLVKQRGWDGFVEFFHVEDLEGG
smiles,measurement,setting,value
C[C@@H]1[C@@H](C)C/C=C/[C@@](O)(CN2CCN3CCCC[C@@H]3C2)[C@@H]2CC[C@H]2CN2C[C@@]3(CCCc4cc(Cl)ccc43)COc3ccc(cc32)C(=O)NS1(=O)=O (racemic) [Example 236],IC50,"[1]; Homo sapiens, OPM-2, 16 h, read-out: OPM-2 10% FBS IC50 IP, OPM-2 cells, 10% FBS, 16 h incubation",87 nM
same,IC50,[2]; [3],0.097 nM
CO[C@@]1(CN2CCN3CCC(F)(F)CC3C2)/C=C/C[C@H](C)[C@@H](C)S(=O)(=O)NC(=O)c2ccc3c(c2)N(C[C@@H]2CC[C@H]21)C[C@@]1(CCCc2cc(Cl)ccc21)CO3 (mixture of isomers) [Example 273],IC50,[1]; [4],501 nM
same,IC50,[2]; [3],0.494 nM
"CO[C@@]1(C[C@@H](O)C(C)C)/C=C/C[C@H](C)[C@@H](C)S(=O)(=O)NC(=O)c2ccc3c(c2)N(C[C@@H]2CC[C@H]21)C[C@@]1(CCCc2cc(Cl)ccc21)CO3 (racemic) [Example 100326, (1S,3′R,6′R,7′S,8′E,11′S,12′R)-6-chloro-7′-((2R)-2-hydroxy-3-methylbutyl)-7′-methoxy-11′,12′-dimethyl-3,4-dihydro-2H,15′H-spiro[naphthalene-1,22′-[20]oxa[13]thia[1,14]diazatetracyclo [14.7.2.0~3,6~.0~19,24~]pentacosa[8,16,18,24]tetraen]-15′-one 13′,13′-dioxide]",IC50,[1]; [5],334 nM
same,IC50,[2]; [6],0.615 nM
"CO[C@@]1(C[C@@H](O)C2CC2)/C=C/C[C@H](C)[C@@H](C)S(=O)(=O)NC(=O)c2ccc3c(c2)N(C[C@@H]2CC[C@H]21)C[C@@]1(CCCc2cc(Cl)ccc21)CO3 (racemic) [Example 100437, (1S,3′R,6′R,7′S,8′E,11′S,12′R)-6-chloro-7′-((2R)-2-cyclopropyl-2-hydroxyethyl)-7′-methoxy-11′,12′-dimethyl-3,4-dihydro-2H,15′H-spiro[naphthalene-1,22′-[20]oxa[13]thia[1,14]diazatetracyclo [14.7.2.0~3,6~.0~19,24~]pentacosa[8,16,18,24]tetraen]-15′-one 13′,13′-dioxide]",IC50,[1]; [5],531 nM
same,IC50,[2]; [6],0.073 nM
"CO[C@]1(CN2CC[C@H]3CCCC[C@@H]3C2)/C=C/C[C@H](C)[C@@H](C)S(=O)(=O)NC(=O)c2ccc3c(c2)N(C[C@@H]2CC[C@H]21)C[C@@]1(CCCc2cc(Cl)ccc21)CO3 (single isomer, unassigned) [Example 89]",IC50,[1]; [4],8210 nM
same,IC50,[2]; [3],3.75 nM
"CO[C@]1(CN2CC[C@@H]3CCCC[C@H]3C2)/C=C/C[C@H](C)[C@@H](C)S(=O)(=O)NC(=O)c2ccc3c(c2)N(C[C@@H]2CC[C@H]21)C[C@@]1(CCCc2cc(Cl)ccc21)CO3 (single isomer, unassigned) [Example 90]",IC50,[1]; [4],8980 nM
same,IC50,[2]; [3],4.66 nM
"CO[C@@]1(CN2CCN3CCOC[C@@H]3C2)/C=C/C[C@H](C)[C@@H](Cc2ccccc2)S(=O)(=O)NC(=O)c2ccc3c(c2)N(C[C@@H]2CC[C@H]21)C[C@@]1(CCCc2cc(Cl)ccc21)CO3 (single isomer, unassigned) [Example 102]",IC50,[1]; [4],416 nM
same,IC50,[2]; [3],0.182 nM
"C[C@@H]1[C@@H](C)C/C=C/[C@]2(CNC(=O)O2)[C@@H]2CC[C@H]2CN2C[C@@]3(CCCc4cc(Cl)ccc43)COc3ccc(cc32)C(=O)NS1(=O)=O (single isomer, unassigned) [Example 128]",IC50,[1]; [4],19600 nM
same,IC50,[2]; [3],0.256 nM
"C[C@@H]1[C@@H](C)C/C=C/[C@]2(CN3CCN(C)C[C@@H]3CO2)[C@@H]2CC[C@H]2CN2C[C@@]3(CCCc4cc(Cl)ccc43)COc3ccc(cc32)C(=O)NS1(=O)=O (single isomer, unassigned) [Example 132]",IC50,[1]; [4],263 nM
same,IC50,[2]; [3],0.613 nM
"C[C@@H]1[C@@H](C)C/C=C/[C@]2(CN3CCN(C)C[C@@H]3CO2)[C@@H]2CC[C@H]2CN2C[C@@]3(CCCc4cc(Cl)ccc43)COc3ccc(cc32)C(=O)NS1(=O)=O (single isomer, unassigned) [Example 133]",IC50,[1]; [4],136 nM
same,IC50,[2]; [3],0.189 nM
"CO[C@]1(CN2CCN3CCS(=O)(=O)C[C@@H]3C2)/C=C/C[C@H](C)[C@@H](C)S(=O)(=O)NC(=O)c2ccc3c(c2)N(C[C@@H]2CC[C@H]21)C[C@@]1(CCCc2cc(Cl)ccc21)CO3 (single isomer, unassigned) [Example 220]",IC50,[1]; [4],42 nM
same,IC50,[2]; [3],0.052 nM
"CC#C[C@]1(O)CCCCCS(=O)(=O)NC(=O)c2ccc3c(c2)N(C[C@@H]2CC[C@H]21)C[C@@]1(CCCc2cc(Cl)ccc21)CO3 [Example 100025, (1S,3′R,6′R,7′S)-6-chloro-7′-hydroxy-7′-(1-propyn-1-yl)-3,4-dihydro-2H,15′H-spiro[naphthalene-1,22′-[20]oxa[13]thia[1,14]diazatetracyclo [14.7.2.0~3,6~.0~19,24~]pentacosa[16,18,24]trien]-15′-one 13′,13′-dioxide]",IC50,[2]; [6],2.35 nM
"CC#C[C@@]1(O)CCCCCS(=O)(=O)NC(=O)c2ccc3c(c2)N(C[C@@H]2CC[C@H]21)C[C@@]1(CCCc2cc(Cl)ccc21)CO3 [Example 100026, (1S,3′R,6′R,7′R)-6-chloro-7′-hydroxy-7′-(1-propyn-1-yl)-3,4-dihydro-2H,15′H-spiro[naphthalene-1,22′-[20]oxa[13]thia[1,14]diazatetracyclo [14.7.2.0~3,6~.0~19,24~]pentacosa[16,18,24]trien]-15′-one 13′,13′-dioxide]",IC50,[2]; [6],2.15 nM
"N#C[C@]1(O)CCCCCS(=O)(=O)NC(=O)c2ccc3c(c2)N(C[C@@H]2CC[C@H]21)C[C@@]1(CCCc2cc(Cl)ccc21)CO3 [Example 100027, (1S,3′R,6′R,7′S)-6-chloro-7′-hydroxy-15′-oxo-3,4-dihydro-2H-spiro[naphthalene-1,22′-[20]oxa[13]thia[1,14]diazatetracyclo [14.7.2.0~3,6~.0~19,24~]pentacosa[16,18,24]triene]-7′-carbonitrile 13′,13′-dioxide]",IC50,[2]; [6],7.34 nM
"C[C@H]1CC/C=C/[C@@](C)(O)[C@@H]2CC[C@H]2CN2C[C@@]3(CCCc4cc(Cl)ccc43)COc3ccc(cc32)C(=O)NS1(=O)=O [Example 100030, (1S,3′R,6′R,7′R,8′E,12′S)-6-chloro-7′-hydroxy-7′,12′-dimethyl-3,4-dihydro-2H,15′H-spiro[naphthalene-1,22′-[20]oxa[13]thia[1,14]diazatetracyclo [14.7.2.0~3,6~.0~19,24~]pentacosa[8,16,18,24]tetraen]-15′-one 13′,13′-dioxide]",IC50,[2]; [6],10.4 nM
"C[C@H]1CCCC[C@](C)(O)[C@@H]2CC[C@H]2CN2C[C@@]3(CCCc4cc(Cl)ccc43)COc3ccc(cc32)C(=O)NS1(=O)=O [Example 100031, (1S,3′R,6′R,7′S,12′S)-6-chloro-7′-hydroxy-7′,12′-dimethyl-3,4-dihydro-2H,15′H-spiro[naphthalene-1,22′-[20]oxa[13]thia[1,14]diazatetracyclo [14.7.2.0~3,6~.0~19,24~]pentacosa[16,18,24]trien]-15′-one 13′,13′-dioxide]",IC50,[2],7.45 nM
"CC[C@@H]1CC/C=C/[C@@](O)(CO)[C@@H]2CC[C@H]2CN2C[C@@]3(CCCc4cc(Cl)ccc43)COc3ccc(cc32)C(=O)NS1(=O)=O [Example 100034, (1S,3′R,6′R,7′S,8′E,12′R)-6-chloro-12′-ethyl-7′-hydroxy-7′-(hydroxymethyl)-3,4-dihydro-2H,15′H-spiro[naphthalene-1,22′-[20]oxa[13]thia[1,14]diazatetracyclo [14.7.2.0~3,6~.0~19,24~]pentacosa[8,16,18,24]tetraen]-15′-one 13′,13′-dioxide]",IC50,[2]; [6],0.877 nM
"CO[C@]1(CO)/C=C/C[C@H](C)[C@@H](C)S(=O)(=O)NC(=O)c2ccc3c(c2)N(C[C@@H]2CC[C@H]21)C[C@@]1(CCCc2cc(Cl)ccc21)CO3 [Example 100312, (1S,3′R,6′R,7′R,8′E,11′S,12′R)-6-chloro-7′-(hydroxymethyl)-7′-methoxy-11′,12′-dimethyl-3,4-dihydro-2H,15′H-spiro[naphthalene-1,22′-[20]oxa[13]thia[1,14]diazatetracyclo [14.7.2.0~3,6~.0~19,24~]pentacosa[8,16,18,24]tetraen]-15′-one 13′,13′-dioxide]",IC50,[2]; [6],0.088 nM
"CO[C@@]1(CCN(C)C2CCCC2)/C=C/C[C@H](C)[C@@H](C)S(=O)(=O)NC(=O)c2ccc3c(c2)N(C[C@@H]2CC[C@H]21)C[C@@]1(CCCc2cc(Cl)ccc21)CO3 [Example 100418, (1S,3′R,6′R,7′S,8′E,11′S,12′R)-6-chloro-7′-(2-(cyclopentyl(methyl)amino)ethyl)-7′-methoxy-11′,12′-dimethyl-3,4-dihydro-2H,15′H-spiro[naphthalene-1,22′-[20]oxa[13]thia[1,14]diazatetracyclo [14.7.2.0~3,6~.0~19,24~]pentacosa[8,16,18,24]tetraen]-15′-one 13′,13′-dioxide]",IC50,[2]; [6],0.098 nM
"C[C@@H]1[C@@H](C)C/C=C/[C@@](O)(C#CCCCN2CCOCC2)[C@@H]2CC[C@H]2CN2C[C@@]3(CCCc4cc(Cl)ccc43)COc3ccc(cc32)C(=O)NS1(=O)=O [Example 100493, (1S,3′R,6′R,7′S,8′E,11′S,12′R)-6-chloro-7′-hydroxy-11′,12′-dimethyl-7′-(5-(4-morpholinyl)-1-pentyn-1-yl)-3,4-dihydro-2H,15′H-spiro[naphthalene-1,22′-[20]oxa[13]thia[1,14]diazatetracyclo [14.7.2.0~3,6~.0~19,24~]pentacosa[8,16,18,24]tetraen]-15′-one 13′,13′-dioxide]",IC50,[2]; [6],0.322 nM
"C[C@@H]1[C@@H](C)C/C=C/[C@](O)(C#CCCCN2CCOCC2)[C@@H]2CC[C@H]2CN2C[C@@]3(CCCc4cc(Cl)ccc43)COc3ccc(cc32)C(=O)NS1(=O)=O [Example 100494, (1S,3′R,6′R,7′R,8′E,11′S,12′R)-6-chloro-7′-hydroxy-11′,12′-dimethyl-7′-(5-(4-morpholinyl)-1-pentyn-1-yl)-3,4-dihydro-2H,15′H-spiro[naphthalene-1,22′-[20]oxa[13]thia[1,14]diazatetracyclo [14.7.2.0~3,6~.0~19,24~]pentacosa[8,16,18,24]tetraen]-15′-one 13′,13′-dioxide]",IC50,[2]; [6],0.078 nM
